ChEMBL document CHEMBL1201862, “PubChem BioAssay data set” (2004)
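How tested: cells in 96-well plates exposed to compound for 48 hours at five concentrations. GI50 marks 50% less growth.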 Activity calls are given as the source filed them. No stated cut-off is given here; in the data, active = GI50 up to about 1.1 µM and inactive = higher.

Key:
Assay in all cases: NCI tumour cell line growth inhibition, 48 h
[1] = system: ACHN
[2] = system: HCC 2998
[3] = system: HCT-15
[4] = system: HT-29
[5] = system: IGROV-1
[6] = system: MCF7
[7] = system: MDA-MB-435
[8] = system: MDA-N
[9] = system: OVCAR-3
[10] = system: OVCAR-4
[11] = system: OVCAR-5
[12] = system: SK-MEL-28
[13] = system: SK-MEL-2
[14] = system: SN12C
[15] = system: SNB-19
[16] = system: T47D
[17] = system: TK-10
[18] = system: SNB-75
[19] = system: SR

SMILES | GI50 [1] | GI50 [2] | GI50 [3] [µM] | GI50 [4] | GI50 [5] | GI50 [6] | GI50 [7] | GI50 [8] | GI50 [9] | GI50 [10] | GI50 [11] | GI50 [12] | GI50 [13] | GI50 [14] | GI50 [15] | GI50 [16] | GI50 [17] | GI50 [18] | GI50 [19]
Cc1ccc(S(=O)(=O)N/N=C2\CC3C4C=CC3C2C4)cc1 (stereo not drawn) | > 100 µM (inactive) | > 100 µM (inactive) | > 100 | > 100 µM (inactive) | > 100 µM (inactive) | > 100 µM (inactive) | > 100 µM (inactive) | > 100 µM (inactive) | > 100 µM (inactive) | > 100 µM (inactive) | > 100 µM (inactive) | > 100 µM (inactive) | > 100 µM (inactive) | > 100 µM (inactive) | > 100 µM (inactive) | > 100 µM (inactive) | > 100 µM (inactive) |  | 
CCCCCCCSCC1C(=O)C23C(O)C1CCC2C12COC3(O)C(O)C1C(C)(C)CCC2O (stereo not drawn) | 12.4 µM (inactive) | 15 µM (inactive) | 9.02 | 13.5 µM (inactive) | 17.9 µM (inactive) |  |  |  | 16.7 µM (inactive) | 11.8 µM (inactive) | 17.5 µM (inactive) | 9.51 µM (inactive) | 14.8 µM (inactive) | 8.41 µM (inactive) | 18.9 µM (inactive) |  | 15.9 µM (inactive) | 21.2 µM (inactive) | 4.92 µM (inactive)
COC(=O)C12C34C=CC5(CCC6(C=CC1(CC3)O6)C52C(=O)OC)O4 (stereo not drawn) | > 100 µM (inactive) | > 100 µM (inactive) |  | > 100 µM (inactive) | > 100 µM (inactive) |  |  |  |  | > 100 µM (inactive) | > 100 µM (inactive) | > 100 µM (inactive) | > 100 µM (inactive) | > 100 µM (inactive) | > 100 µM (inactive) |  | > 100 µM (inactive) |  | > 100 µM (inactive)
C/C(=N/NC(=O)C(N)=O)C(CC(C(=O)Nc1ccccc1C)/C(C)=N\NC(=O)C(N)=O)C(=O)Nc1ccccc1C (stereo not drawn) | 83.2 µM (inactive) | > 100 µM (inactive) |  | > 100 µM (inactive) | > 100 µM (inactive) |  |  |  | > 100 µM (inactive) | > 100 µM (inactive) | > 100 µM (inactive) | > 100 µM (inactive) | > 100 µM (inactive) | > 100 µM (inactive) | > 100 µM (inactive) |  | > 100 µM (inactive) | > 100 µM (inactive) | 
CCCC/C=C1\CCC(C)(CN(C)C)C1=O (stereo not drawn) | > 100 µM (inactive) | > 100 µM (inactive) | > 100 | > 100 µM (inactive) | > 100 µM (inactive) |  |  |  | > 100 µM (inactive) | > 100 µM (inactive) | > 100 µM (inactive) | > 100 µM (inactive) | > 100 µM (inactive) | > 100 µM (inactive) |  |  | > 100 µM (inactive) |  | > 100 µM (inactive)
CCOc1ccc(NC(=O)CCc2nnc(SC)o2)cc1 | > 100 µM (inactive) | > 100 µM (inactive) | > 100 | > 100 µM (inactive) | > 100 µM (inactive) |  |  |  | > 100 µM (inactive) | > 100 µM (inactive) | > 100 µM (inactive) | > 100 µM (inactive) | > 100 µM (inactive) | > 100 µM (inactive) | > 100 µM (inactive) |  | > 100 µM (inactive) | > 100 µM (inactive) | > 100 µM (inactive)
N#Cc1sc2c(c1OC(=O)c1ccc(Cl)cc1Cl)c(=O)n(-c1ccccc1)c(=S)n2-c1ccccc1 | 29 µM (inactive) | 29.2 µM (inactive) | 21.5 | 18.2 µM (inactive) | 17 µM (inactive) | 23 µM (inactive) | 19.7 µM (inactive) |  | 19.2 µM (inactive) | 21.5 µM (inactive) | 50.7 µM (inactive) | > 100 µM (inactive) |  | 21.8 µM (inactive) | 19.8 µM (inactive) | 26.6 µM (inactive) | 33.6 µM (inactive) | 20.8 µM (inactive) | > 100 µM (inactive)
C/C=C/C(=O)N1C(=O)OC[C@@H]1c1ccccc1 | 19.1 µM (inactive) | 23.1 µM (inactive) | 23.3 | 19.2 µM (inactive) | 19.4 µM (inactive) | 14.7 µM (inactive) | 27.4 µM (inactive) | 20.7 µM (inactive) | 18 µM (inactive) | 23 µM (inactive) | 17.4 µM (inactive) | 21.5 µM (inactive) | 19.1 µM (inactive) | 20.5 µM (inactive) | 20.4 µM (inactive) | 16.3 µM (inactive) | 17.5 µM (inactive) | 12.8 µM (inactive) | 
C=CCCCCCCCCCCCC1CCC(CC)N1 (stereo not drawn) | 15.7 µM (inactive) | 3.37 µM (inactive) | 3.4 | 3.67 µM (inactive) | 10.1 µM (inactive) |  |  |  | 9.44 µM (inactive) | 4.79 µM (inactive) | 10.6 µM (inactive) | 15.7 µM (inactive) | 13.2 µM (inactive) | 11.5 µM (inactive) | 15.5 µM (inactive) |  | 16.8 µM (inactive) | 14.4 µM (inactive) | 2.47 µM (inactive)
Cc1c(C)c2cc3c(=O)ccoc3c(C)c2oc1=O | > 100 µM (inactive) | > 100 µM (inactive) | > 100 |  | 39.8 µM (inactive) |  |  |  | > 100 µM (inactive) |  | > 100 µM (inactive) | > 100 µM (inactive) | > 100 µM (inactive) | 56.6 µM (inactive) | 48.6 µM (inactive) |  | > 100 µM (inactive) | 15 µM (inactive) | 
CCCCCCCCCCCCCCCCOC(=O)c1cc(O)cc(C(=O)OCCCCCCCCCCCCCCCC)c1 | > 100 µM (inactive) | > 100 µM (inactive) | > 100 | > 100 µM (inactive) | > 100 µM (inactive) |  |  |  | > 100 µM (inactive) | > 100 µM (inactive) | > 100 µM (inactive) | > 100 µM (inactive) | > 100 µM (inactive) | > 100 µM (inactive) | > 100 µM (inactive) |  | > 100 µM (inactive) | > 100 µM (inactive) | 
Cc1cc(C)c(C(=O)/C(=C/c2ccccc2)c2ccccc2)c(C)c1 | 40.7 µM (inactive) |  | 20.6 | 28.2 µM (inactive) | 86.3 µM (inactive) |  |  |  | 51.4 µM (inactive) | 57.9 µM (inactive) |  | > 100 µM (inactive) | 11.3 µM (inactive) | 41.7 µM (inactive) | > 100 µM (inactive) |  | 93.5 µM (inactive) | 82.2 µM (inactive) | 36.6 µM (inactive)
Cc1cc(/C=C/c2cc[n+](C)c3ccccc23)c(O)c2ncccc12 | 4.22 µM (inactive) | 1.06 µM (active) | 4.65 | 3.76 µM (inactive) | 1.93 µM (inactive) |  |  |  | 0.288 µM (active) | 7.94 µM (inactive) | 3.27 µM (inactive) | 2.16 µM (inactive) | 2.67 µM (inactive) | 1.09 µM (active) | 4.55 µM (inactive) |  | 4.28 µM (inactive) | 5.16 µM (inactive) | 0.379 µM (active)
CCSC1=CC(Cc2ccc(OC)cc2)N(C(=O)OC)C1 (stereo not drawn) | > 100 µM (inactive) | > 100 µM (inactive) | 40.7 | 94.2 µM (inactive) | > 100 µM (inactive) |  |  |  | 51.4 µM (inactive) | > 100 µM (inactive) | > 100 µM (inactive) | > 100 µM (inactive) | 97.7 µM (inactive) | > 100 µM (inactive) | > 100 µM (inactive) |  | > 100 µM (inactive) | > 100 µM (inactive) | 26.3 µM (inactive)
Cc1nc(C)c(C(=O)Nc2cccc3c2C(=O)NC3=O)cc1C(=O)Nc1cccc2c1C(=O)NC2=O | > 100 µM (inactive) | > 100 µM (inactive) | > 100 | > 100 µM (inactive) | > 100 µM (inactive) |  |  |  | > 100 µM (inactive) | > 100 µM (inactive) | > 100 µM (inactive) | > 100 µM (inactive) | > 100 µM (inactive) | > 100 µM (inactive) | > 100 µM (inactive) |  | > 100 µM (inactive) | > 100 µM (inactive) | > 100 µM (inactive)
COC(=O)N/N=C(\C)c1c(O)cc(C)oc1=O | 25.8 µM (inactive) | 43.9 µM (inactive) | 17 | 65.3 µM (inactive) | > 100 µM (inactive) |  |  |  |  | > 100 µM (inactive) |  | 50.8 µM (inactive) | 41.4 µM (inactive) | 78.5 µM (inactive) | > 100 µM (inactive) |  | 33.2 µM (inactive) | > 100 µM (inactive) | 37.2 µM (inactive)
O=C1C2C3C=C4c5ccccc5N(c5ccccc5)C4(C2C(=O)N1c1ccc(Br)cc1)[C@H]1C(=O)N(c2ccc(Br)cc2)C(=O)[C@@H]31 (stereo partly drawn) |  |  | > 100 | > 100 µM (inactive) | > 100 µM (inactive) |  |  |  | > 100 µM (inactive) | > 100 µM (inactive) | > 100 µM (inactive) |  | > 100 µM (inactive) | > 100 µM (inactive) | > 100 µM (inactive) |  | 89.3 µM (inactive) | > 100 µM (inactive) | 38.9 µM (inactive)
COC(=O)[C@@]12OC[C@]34C([C@@H](O)C1O)[C@@]1(C)CC(=O)C(OC(=O)/C=C(/c5ccccc5)C(F)(F)F)=C(C)C1C[C@H]3OC(=O)[C@H](O)[C@H]42 (stereo partly drawn) | 13.9 µM (inactive) | 3.44 µM (inactive) | 23.8 | 6.76 µM (inactive) | 3.9 µM (inactive) |  |  |  |  | 17.7 µM (inactive) | 21.8 µM (inactive) | 5.31 µM (inactive) | 7.96 µM (inactive) | 7.93 µM (inactive) | 4.71 µM (inactive) |  | 10.1 µM (inactive) | 4.01 µM (inactive) | 3.29 µM (inactive)
CC(C)S(=O)(=O)ON1C(=O)c2ccc([N+](=O)[O-])cc2C1=O | > 100 µM (inactive) | > 100 µM (inactive) | > 100 | > 100 µM (inactive) | > 100 µM (inactive) |  |  |  | > 100 µM (inactive) | > 100 µM (inactive) | > 100 µM (inactive) | > 100 µM (inactive) | > 100 µM (inactive) | > 100 µM (inactive) | > 100 µM (inactive) |  | > 100 µM (inactive) | > 100 µM (inactive) | > 100 µM (inactive)
